A word on the IC50: it is the concentration that gives 50% inhibition.

The structures appear in SMILES notation. Where a SMILES comes first, the peptide text is derived from it. Bridges are numbered along the chain shown (N, C = ends). [ ]: non-standard residue; d: D form. Phe(3-CF3) = N[C@@H](Cc1cccc(C(F)(F)F)c1)C(=O)O; Phe(4-CF3) = N[C@@H](Cc1ccc(C(F)(F)F)cc1)C(=O)O; Phe(2-CF3) = N[C@@H](Cc1ccccc1C(F)(F)F)C(=O)O; Phe(3-CN) = N#Cc1cccc(C[C@H](N)C(=O)O)c1; Phe(3-OMe) = COc1cccc(C[C@H](N)C(=O)O)c1; Phe(4-CN) = N#Cc1ccc(C[C@H](N)C(=O)O)cc1; Phe(2-CN) = N#Cc1ccccc1C[C@H](N)C(=O)O; Phe(2-OMe) = COc1ccccc1C[C@H](N)C(=O)O; Phe(3-F) = N[C@@H](Cc1cccc(F)c1)C(=O)O; Phe(2-F) = N[C@@H](Cc1ccccc1F)C(=O)O; hArg = N=C(N)NCCCC[C@H](N)C(=O)O; 2Pal = N[C@@H](Cc1ccccn1)C(=O)O; 3Pal = N[C@@H](Cc1cccnc1)C(=O)O; 4Pal = N[C@@H](Cc1ccncc1)C(=O)O; Cha = N[C@@H](CC1CCCCC1)C(=O)O; Orn = NCCC[C@H](N)C(=O)O

Drawing on ChEMBL document CHEMBL5042477, “Potent Cyclic Peptide Inhibitors of FXIIa Discovered by mRNA Display with Genetic Code Reprogramming” (J Med Chem, 2021), this text covers IC50 for 16 compounds.

The target of the assay is T1, Coagulation factor XII (Homo sapiens, UniProt P00748).
T1 sequence (P00748 whole entry): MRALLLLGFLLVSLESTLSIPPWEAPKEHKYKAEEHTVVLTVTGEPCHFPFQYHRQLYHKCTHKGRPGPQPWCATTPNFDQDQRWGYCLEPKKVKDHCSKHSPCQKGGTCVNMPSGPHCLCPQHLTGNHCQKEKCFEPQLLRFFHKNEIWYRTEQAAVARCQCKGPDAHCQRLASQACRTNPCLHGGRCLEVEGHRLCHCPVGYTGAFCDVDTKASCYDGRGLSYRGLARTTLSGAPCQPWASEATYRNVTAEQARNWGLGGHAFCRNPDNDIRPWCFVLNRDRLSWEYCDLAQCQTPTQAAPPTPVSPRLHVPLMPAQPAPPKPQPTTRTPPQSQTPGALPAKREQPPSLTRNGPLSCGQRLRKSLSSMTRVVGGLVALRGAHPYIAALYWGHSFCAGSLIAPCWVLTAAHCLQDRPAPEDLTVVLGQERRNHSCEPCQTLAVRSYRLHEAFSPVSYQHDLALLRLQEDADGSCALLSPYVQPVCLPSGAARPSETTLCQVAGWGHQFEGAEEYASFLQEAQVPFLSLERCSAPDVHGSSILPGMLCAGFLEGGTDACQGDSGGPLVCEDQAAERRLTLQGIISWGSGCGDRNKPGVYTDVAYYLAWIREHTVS
As to the kind of experiment: Inhibition of human factor 12a using H-D-Pro-Phe-Arg-p-nitroanilide as chromogenic substrate assessed as liberation of p-nitroaniline measured every 5 mins for 60 min by multimode plate reader analysis.
For `CC(C)C[C@@H]1NC(=O)[C@H](Cc2ccc(O)cc2)NC(=O)CSC[C@@H](C(N)=O)NC(=O)CNC(=O)CNC(=O)[C@H](CCCNC(=N)N)NC(=O)[C@H](CC(=O)O)NC(=O)[C@H](CCCCN)NC(=O)[C@@H]2CCCN2C(=O)[C@H](CCCNC(=N)N)NC(=O)[C@H](Cc2ccccc2)NC(=O)[C@H](CCCN)NC1=O` ({CH2CO}-YL[Orn]FRPKDRGGC-NH2; thioether N-12), the IC50 is 71 µM.

Take `CC(C)C[C@@H]1NC(=O)[C@H](Cc2ccc(O)cc2)NC(=O)CSC[C@@H](C(N)=O)NC(=O)CNC(=O)CNC(=O)[C@H](CCCNC(=N)N)NC(=O)[C@H](CC(=O)O)NC(=O)[C@H](CCCCN)NC(=O)[C@@H]2CCCN2C(=O)[C@H](CCCNC(=N)N)NC(=O)[C@H](Cc2ccccc2)NC(=O)[C@H](CCCCNC(=N)N)NC1=O` ({CH2CO}-YL[hArg]FRPKDRGGC-NH2; thioether N-12): the IC50 amounted to 0.073 µM.

As for `CC(C)C[C@@H]1NC(=O)[C@H](Cc2ccccn2)NC(=O)CSC[C@@H](C(N)=O)NC(=O)CNC(=O)CNC(=O)[C@H](CCCNC(=N)N)NC(=O)[C@H](CC(=O)O)NC(=O)[C@H](CCCCN)NC(=O)[C@@H]2CCCN2C(=O)[C@H](CCCNC(=N)N)NC(=O)[C@H](Cc2ccccc2)NC(=O)[C@H](CCCNC(=N)N)NC1=O` ({CH2CO}-[2Pal]LRFRPKDRGGC-NH2; thioether N-12), the IC50 turned out to be 11 µM.

Turning to `CC(C)C[C@@H]1NC(=O)[C@H](Cc2cccnc2)NC(=O)CSC[C@@H](C(N)=O)NC(=O)CNC(=O)CNC(=O)[C@H](CCCNC(=N)N)NC(=O)[C@H](CC(=O)O)NC(=O)[C@H](CCCCN)NC(=O)[C@@H]2CCCN2C(=O)[C@H](CCCNC(=N)N)NC(=O)[C@H](Cc2ccccc2)NC(=O)[C@H](CCCNC(=N)N)NC1=O` ({CH2CO}-[3Pal]LRFRPKDRGGC-NH2; thioether N-12), the IC50 was found to be 15 µM.

Take `CC(C)C[C@@H]1NC(=O)[C@H](Cc2ccncc2)NC(=O)CSC[C@@H](C(N)=O)NC(=O)CNC(=O)CNC(=O)[C@H](CCCNC(=N)N)NC(=O)[C@H](CC(=O)O)NC(=O)[C@H](CCCCN)NC(=O)[C@@H]2CCCN2C(=O)[C@H](CCCNC(=N)N)NC(=O)[C@H](Cc2ccccc2)NC(=O)[C@H](CCCNC(=N)N)NC1=O` ({CH2CO}-[4Pal]LRFRPKDRGGC-NH2; thioether N-12): the IC50 was 12 µM.

Consider `CC(C)C[C@@H]1NC(=O)[C@H](CC2CCCCC2)NC(=O)CSC[C@@H](C(N)=O)NC(=O)CNC(=O)CNC(=O)[C@H](CCCNC(=N)N)NC(=O)[C@H](CC(=O)O)NC(=O)[C@H](CCCCN)NC(=O)[C@@H]2CCCN2C(=O)[C@H](CCCNC(=N)N)NC(=O)[C@H](Cc2ccccc2)NC(=O)[C@H](CCCNC(=N)N)NC1=O` ({CH2CO}-[Cha]LRFRPKDRGGC-NH2; thioether N-12), for which the IC50 came out at 140 µM.

In the case of `CC(C)C[C@@H]1NC(=O)[C@H](Cc2ccccc2C(F)(F)F)NC(=O)CSC[C@@H](C(N)=O)NC(=O)CNC(=O)CNC(=O)[C@H](CCCNC(=N)N)NC(=O)[C@H](CC(=O)O)NC(=O)[C@H](CCCCN)NC(=O)[C@@H]2CCCN2C(=O)[C@H](CCCNC(=N)N)NC(=O)[C@H](Cc2ccccc2)NC(=O)[C@H](CCCNC(=N)N)NC1=O` ({CH2CO}-[Phe(2-CF3)]LRFRPKDRGGC-NH2; thioether N-12), the IC50 is 120 µM.

For the compound `CC(C)C[C@@H]1NC(=O)[C@H](Cc2ccccc2C#N)NC(=O)CSC[C@@H](C(N)=O)NC(=O)CNC(=O)CNC(=O)[C@H](CCCNC(=N)N)NC(=O)[C@H](CC(=O)O)NC(=O)[C@H](CCCCN)NC(=O)[C@@H]2CCCN2C(=O)[C@H](CCCNC(=N)N)NC(=O)[C@H](Cc2ccccc2)NC(=O)[C@H](CCCNC(=N)N)NC1=O` ({CH2CO}-[Phe(2-CN)]LRFRPKDRGGC-NH2; thioether N-12), the IC50 was 14 µM.

As to `CC(C)C[C@@H]1NC(=O)[C@H](Cc2ccccc2F)NC(=O)CSC[C@@H](C(N)=O)NC(=O)CNC(=O)CNC(=O)[C@H](CCCNC(=N)N)NC(=O)[C@H](CC(=O)O)NC(=O)[C@H](CCCCN)NC(=O)[C@@H]2CCCN2C(=O)[C@H](CCCNC(=N)N)NC(=O)[C@H](Cc2ccccc2)NC(=O)[C@H](CCCNC(=N)N)NC1=O` ({CH2CO}-[Phe(2-F)]LRFRPKDRGGC-NH2; thioether N-12), the IC50 stood at 0.35 µM.

With `COc1ccccc1C[C@@H]1NC(=O)CSC[C@@H](C(N)=O)NC(=O)CNC(=O)CNC(=O)[C@H](CCCNC(=N)N)NC(=O)[C@H](CC(=O)O)NC(=O)[C@H](CCCCN)NC(=O)[C@@H]2CCCN2C(=O)[C@H](CCCNC(=N)N)NC(=O)[C@H](Cc2ccccc2)NC(=O)[C@H](CCCNC(=N)N)NC(=O)[C@H](CC(C)C)NC1=O` ({CH2CO}-[Phe(2-OMe)]LRFRPKDRGGC-NH2; thioether N-12), the IC50 came out at 400 µM.

With `CC(C)C[C@@H]1NC(=O)[C@H](Cc2cccc(C(F)(F)F)c2)NC(=O)CSC[C@@H](C(N)=O)NC(=O)CNC(=O)CNC(=O)[C@H](CCCNC(=N)N)NC(=O)[C@H](CC(=O)O)NC(=O)[C@H](CCCCN)NC(=O)[C@@H]2CCCN2C(=O)[C@H](CCCNC(=N)N)NC(=O)[C@H](Cc2ccccc2)NC(=O)[C@H](CCCNC(=N)N)NC1=O` ({CH2CO}-[Phe(3-CF3)]LRFRPKDRGGC-NH2; thioether N-12), the IC50 is 84 µM.

Take `CC(C)C[C@@H]1NC(=O)[C@H](Cc2cccc(C#N)c2)NC(=O)CSC[C@@H](C(N)=O)NC(=O)CNC(=O)CNC(=O)[C@H](CCCNC(=N)N)NC(=O)[C@H](CC(=O)O)NC(=O)[C@H](CCCCN)NC(=O)[C@@H]2CCCN2C(=O)[C@H](CCCNC(=N)N)NC(=O)[C@H](Cc2ccccc2)NC(=O)[C@H](CCCNC(=N)N)NC1=O` ({CH2CO}-[Phe(3-CN)]LRFRPKDRGGC-NH2; thioether N-12): the IC50 amounted to 3.1 µM.

As to `CC(C)C[C@@H]1NC(=O)[C@H](Cc2cccc(F)c2)NC(=O)CSC[C@@H](C(N)=O)NC(=O)CNC(=O)CNC(=O)[C@H](CCCNC(=N)N)NC(=O)[C@H](CC(=O)O)NC(=O)[C@H](CCCCN)NC(=O)[C@@H]2CCCN2C(=O)[C@H](CCCNC(=N)N)NC(=O)[C@H](Cc2ccccc2)NC(=O)[C@H](CCCNC(=N)N)NC1=O` ({CH2CO}-[Phe(3-F)]LRFRPKDRGGC-NH2; thioether N-12), the IC50 amounted to 0.65 µM.

Consider `COc1cccc(C[C@@H]2NC(=O)CSC[C@@H](C(N)=O)NC(=O)CNC(=O)CNC(=O)[C@H](CCCNC(=N)N)NC(=O)[C@H](CC(=O)O)NC(=O)[C@H](CCCCN)NC(=O)[C@@H]3CCCN3C(=O)[C@H](CCCNC(=N)N)NC(=O)[C@H](Cc3ccccc3)NC(=O)[C@H](CCCNC(=N)N)NC(=O)[C@H](CC(C)C)NC2=O)c1` ({CH2CO}-[Phe(3-OMe)]LRFRPKDRGGC-NH2; thioether N-12), for which the IC50 is 0.64 µM.

Take `CC(C)C[C@@H]1NC(=O)[C@H](Cc2ccc(C(F)(F)F)cc2)NC(=O)CSC[C@@H](C(N)=O)NC(=O)CNC(=O)CNC(=O)[C@H](CCCNC(=N)N)NC(=O)[C@H](CC(=O)O)NC(=O)[C@H](CCCCN)NC(=O)[C@@H]2CCCN2C(=O)[C@H](CCCNC(=N)N)NC(=O)[C@H](Cc2ccccc2)NC(=O)[C@H](CCCNC(=N)N)NC1=O` ({CH2CO}-[Phe(4-CF3)]LRFRPKDRGGC-NH2; thioether N-12): the IC50 was determined as 74 µM.

As for `CC(C)C[C@@H]1NC(=O)[C@H](Cc2ccc(C#N)cc2)NC(=O)CSC[C@@H](C(N)=O)NC(=O)CNC(=O)CNC(=O)[C@H](CCCNC(=N)N)NC(=O)[C@H](CC(=O)O)NC(=O)[C@H](CCCCN)NC(=O)[C@@H]2CCCN2C(=O)[C@H](CCCNC(=N)N)NC(=O)[C@H](Cc2ccccc2)NC(=O)[C@H](CCCNC(=N)N)NC1=O` ({CH2CO}-[Phe(4-CN)]LRFRPKDRGGC-NH2; thioether N-12), the IC50 came to 8.1 µM.
